Measured values taken from ChEMBL document CHEMBL1127541, “3,4-Dihydro-3-amino-2H-1-benzopyran derivatives as 5-HT1A receptor ligands and potential anxiolytic agents. 1. Synthesis and structure--activity relationship studies” (J Med Chem, 1994).
pIC50: −log10 of the molar value.

Tests used:
D(1A) dopamine receptor = D(1A) dopamine receptor (Bos taurus, UniProt Q95136); experiment: Binding affinity towards dopamine receptor D1 in calf striatum; type: tissue-based
[1] = target: T1, 5-hydroxytryptamine receptor 1A (Rattus norvegicus, UniProt P19327); experiment: Binding affinity against 5-hydroxytryptamine 1A (5-HT1A) receptor in rat hippocampus membranes; type: cell membranes, Membrane
T1 sequence (P19327 whole entry): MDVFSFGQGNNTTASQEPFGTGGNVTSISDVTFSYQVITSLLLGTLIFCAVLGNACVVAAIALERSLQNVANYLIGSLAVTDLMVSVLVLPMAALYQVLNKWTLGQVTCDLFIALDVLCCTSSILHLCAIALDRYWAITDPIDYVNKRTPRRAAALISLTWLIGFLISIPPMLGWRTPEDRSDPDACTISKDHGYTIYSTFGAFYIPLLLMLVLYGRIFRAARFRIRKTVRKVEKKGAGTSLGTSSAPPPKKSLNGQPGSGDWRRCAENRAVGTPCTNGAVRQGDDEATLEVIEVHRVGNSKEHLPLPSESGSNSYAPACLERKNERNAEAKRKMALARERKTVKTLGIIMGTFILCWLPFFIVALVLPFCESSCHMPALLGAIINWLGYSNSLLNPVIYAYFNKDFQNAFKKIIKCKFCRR

[2] = target: 5-hydroxytryptamine receptor 1B (Rattus norvegicus, UniProt P28564); experiment: Binding affinity for 5-hydroxytryptamine 1B receptor in rat cortex, striatum and globus pallidus; type: tissue-based
[3] = target: T2, Alpha-1A adrenergic receptor (Bos taurus, UniProt P18130); experiment: Binding affinity against alpha-1 adrenergic receptor in calf frontal cortex; type: tissue-based
T2 sequence (P18130 whole entry): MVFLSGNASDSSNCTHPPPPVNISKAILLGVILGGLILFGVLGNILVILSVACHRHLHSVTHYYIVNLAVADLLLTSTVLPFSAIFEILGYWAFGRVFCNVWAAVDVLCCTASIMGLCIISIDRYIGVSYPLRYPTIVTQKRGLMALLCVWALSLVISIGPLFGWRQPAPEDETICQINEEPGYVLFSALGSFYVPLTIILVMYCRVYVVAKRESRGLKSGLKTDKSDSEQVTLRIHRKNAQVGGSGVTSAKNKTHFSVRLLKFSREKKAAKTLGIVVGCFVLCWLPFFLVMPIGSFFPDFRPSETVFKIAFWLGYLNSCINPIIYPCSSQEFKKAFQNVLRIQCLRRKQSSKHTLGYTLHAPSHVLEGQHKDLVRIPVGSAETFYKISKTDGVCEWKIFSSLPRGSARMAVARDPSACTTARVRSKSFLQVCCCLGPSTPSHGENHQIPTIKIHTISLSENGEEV

[4] = target: T3, Alpha-2A adrenergic receptor (Bos taurus, UniProt Q28838); experiment: Binding affinity against alpha-2 adrenergic receptor in calf frontal cortex; type: tissue-based
T3 sequence (Q28838 whole entry): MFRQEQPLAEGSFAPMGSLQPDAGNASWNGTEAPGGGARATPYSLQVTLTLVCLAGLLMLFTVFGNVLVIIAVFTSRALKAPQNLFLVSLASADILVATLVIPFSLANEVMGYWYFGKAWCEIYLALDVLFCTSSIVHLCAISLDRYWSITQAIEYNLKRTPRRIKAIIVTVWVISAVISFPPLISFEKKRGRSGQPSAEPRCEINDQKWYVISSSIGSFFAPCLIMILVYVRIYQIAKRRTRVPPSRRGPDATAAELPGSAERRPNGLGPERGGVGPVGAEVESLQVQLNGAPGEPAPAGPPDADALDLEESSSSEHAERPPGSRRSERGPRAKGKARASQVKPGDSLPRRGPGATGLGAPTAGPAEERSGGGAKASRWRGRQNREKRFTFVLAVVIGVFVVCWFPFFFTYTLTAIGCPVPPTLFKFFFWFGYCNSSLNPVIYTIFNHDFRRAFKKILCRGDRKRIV

[5] = target: 5-hydroxytryptamine receptor 2A (Bos taurus, UniProt Q75Z89); experiment: Binding affinity towards 5-hydroxytryptamine 2 receptor in calf frontal cortex; type: tissue-based
D(2) dopamine receptor = D(2) dopamine receptor (Bos taurus, UniProt P20288); experiment: Binding affinity against D2 receptor in calf caudate nucleus
Chain of D(2) dopamine receptor (P20288 whole entry): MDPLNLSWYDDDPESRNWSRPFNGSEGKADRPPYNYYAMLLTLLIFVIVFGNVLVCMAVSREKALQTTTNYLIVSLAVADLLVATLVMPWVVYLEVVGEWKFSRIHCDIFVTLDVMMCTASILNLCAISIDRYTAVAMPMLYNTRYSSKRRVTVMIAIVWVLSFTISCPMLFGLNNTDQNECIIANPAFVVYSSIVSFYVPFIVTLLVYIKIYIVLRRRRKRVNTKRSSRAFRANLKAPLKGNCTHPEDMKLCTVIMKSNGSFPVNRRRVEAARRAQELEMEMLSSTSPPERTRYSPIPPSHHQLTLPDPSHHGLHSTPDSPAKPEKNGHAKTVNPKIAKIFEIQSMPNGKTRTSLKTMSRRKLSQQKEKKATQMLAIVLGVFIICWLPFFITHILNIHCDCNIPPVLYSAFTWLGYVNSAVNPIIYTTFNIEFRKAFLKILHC

Chain of 5-hydroxytryptamine receptor 2A (Q75Z89 whole entry): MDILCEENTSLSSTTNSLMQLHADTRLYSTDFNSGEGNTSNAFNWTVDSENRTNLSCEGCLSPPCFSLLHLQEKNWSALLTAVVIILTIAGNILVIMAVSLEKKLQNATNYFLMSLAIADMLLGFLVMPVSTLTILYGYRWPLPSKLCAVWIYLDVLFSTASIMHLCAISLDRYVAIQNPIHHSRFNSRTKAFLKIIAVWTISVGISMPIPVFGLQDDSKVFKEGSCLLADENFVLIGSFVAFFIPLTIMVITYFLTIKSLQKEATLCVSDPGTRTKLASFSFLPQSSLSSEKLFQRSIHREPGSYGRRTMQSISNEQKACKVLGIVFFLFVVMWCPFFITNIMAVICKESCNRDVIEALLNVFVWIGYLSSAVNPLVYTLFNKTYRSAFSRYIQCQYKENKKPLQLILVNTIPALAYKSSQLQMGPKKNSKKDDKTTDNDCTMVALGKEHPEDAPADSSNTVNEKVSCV
Chain of 5-hydroxytryptamine receptor 1B (P28564 whole entry): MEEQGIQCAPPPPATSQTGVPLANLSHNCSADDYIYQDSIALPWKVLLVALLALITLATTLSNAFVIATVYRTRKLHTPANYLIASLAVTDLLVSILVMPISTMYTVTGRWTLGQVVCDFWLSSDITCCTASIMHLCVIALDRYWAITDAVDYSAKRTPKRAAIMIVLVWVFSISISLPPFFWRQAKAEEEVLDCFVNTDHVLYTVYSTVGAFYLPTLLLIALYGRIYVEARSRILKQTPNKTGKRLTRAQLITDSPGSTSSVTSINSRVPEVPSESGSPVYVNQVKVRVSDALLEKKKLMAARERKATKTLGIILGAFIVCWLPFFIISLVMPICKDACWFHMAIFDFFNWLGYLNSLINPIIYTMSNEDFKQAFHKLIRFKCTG
Chain of D(1A) dopamine receptor (Q95136 whole entry): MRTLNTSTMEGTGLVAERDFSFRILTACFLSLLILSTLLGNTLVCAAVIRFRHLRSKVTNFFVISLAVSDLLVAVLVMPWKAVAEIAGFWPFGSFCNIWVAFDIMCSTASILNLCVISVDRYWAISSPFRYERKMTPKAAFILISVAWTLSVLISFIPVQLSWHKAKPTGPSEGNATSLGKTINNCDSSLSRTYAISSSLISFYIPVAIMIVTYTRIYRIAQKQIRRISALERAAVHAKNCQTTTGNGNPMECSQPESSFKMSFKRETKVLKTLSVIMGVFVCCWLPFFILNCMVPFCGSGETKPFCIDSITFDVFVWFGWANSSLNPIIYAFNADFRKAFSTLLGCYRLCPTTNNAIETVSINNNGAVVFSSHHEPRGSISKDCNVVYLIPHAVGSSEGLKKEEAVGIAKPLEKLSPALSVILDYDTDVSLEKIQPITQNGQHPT

Row | SMILES | pIC50 (D(1A) dopamine receptor) | pIC50 [1] | pIC50 [2] | pIC50 [3] | pIC50 [4] | pIC50 [5] | pIC50 (D(2) dopamine receptor)
1 | CCCN(CCCNS(=O)(=O)c1ccc(C)cc1)C1COc2cccc(OC)c2C1 (stereo not given) | 4.70 | 8.52 | 5.70 | 5.52 | 6.30 | 5.22 | 7.52
2 | CCCN(CCCCNS(=O)(=O)c1ccc(C)cc1)C1COc2cccc(OC)c2C1 (single isomer, unassigned; (+)) | 4.70 | 9.15 | 5.05 | 5.52 | 5.70 | 5.10 | 7.00
3 | CCCN(CCCCN1CCCCC1)C1COc2cccc(OC)c2C1 (stereo not given) | 4.00 | 8.70 | 4.30 | 5.30 | 5.00 | < 3.00 | 7.70
4 | CCCN(CCNS(=O)(=O)c1ccc(C)cc1)C1COc2cccc(OC)c2C1 (single isomer, unassigned; (+)) | 4.00 | 8.10 | < 3.00 | 4.00 | 4.30 | < 3.00 | 6.30
5 | CCCN(CCNS(=O)(=O)c1ccc(C)cc1)C1COc2cccc(OC)c2C1 (stereo in doubt; 15b) | 4.30 | 8.70 | < 3.00 | 4.00 | < 3.00 | 6.00 | 7.00
6 | CCCN(CCCCN1C(=O)C2CCCC2C1=O)C1COc2cccc(OC)c2C1 (stereo in doubt; 9k) | 4.40 | 8.70 | 4.70 | 5.15 | 5.30 | 5.05 | 7.70
7 | CCCN(CCN1C(=O)CC2(CCCC2)CC1=O)C1COc2cccc(OC)c2C1 (stereo not given) | < 3.00 | 7.52 | < 3.00 | < 3.00 | < 3.00 | < 3.00 | 5.52
8 | O=C1CC2(CCCC2)CC(=O)N1CCCCN1CCN(c2ncccn2)CC1 [BUSPIRONE] | 4.57 |  |  | 4.80 | 5.00 | 5.00 | 5.40
9 | CCCN(CCCCN1C(=O)CC(C)(C)CC1=O)C1COc2cccc(OC)c2C1 (stereo not given) | 4.10 | 8.40 | 5.00 | 5.22 | 6.40 | 5.22 | 7.40
10 | CCCN(CCCCCN1C(=O)CC2(CCCC2)CC1=O)C1COc2cccc(OC)c2C1 (stereo not given) | 4.22 | 9.00 | 4.70 | 5.30 | 7.00 | 5.52 | 4.22
11 | CCCN(CCNC(C)=O)C1COc2cccc(OC)c2C1 (stereo not given) | < 3.00 | 7.40 | 4.22 | < 3.00 | 5.00 | < 3.00 | 6.22
12 | CCCN(CCC)C1COc2cccc(OC)c2C1 (stereo in doubt; 4) | 4.00 | 7.70 | 4.70 | 4.10 | 5.40 | 4.22 | 7.30
13 | CCCN(CCCCN1C(=O)C2CCCC2C1=O)C1COc2cccc(OC)c2C1 (single isomer, unassigned; (+)) | 4.30 | 8.10 | 5.00 | 5.52 | 5.30 | 5.00 | 7.00
14 | O=C1c2ccccc2S(=O)(=O)N1CCCCN1CCN(c2ncccn2)CC1 [IPSAPIRONE] | 4.92 | 7.46 | 4.30 | 5.92 | 5.55 | 5.12 | < 3.00
15 | CCCN(CCC)C1COc2cccc(OC)c2C1 (single isomer, unassigned; (+)) | < 3.00 | 8.70 | 6.29 | 5.64 | 5.04 | 5.01 | 6.85
16 | CCCN(CCCCN1C(=O)CC2(CCCC2)CC1=O)C1COc2cccc(O)c2C1 (stereo not given) | 4.00 | 9.00 | 4.52 | 5.00 | 4.70 | 5.40 | 8.10
17 | CCCN(CCCCNC(=O)c1ccccc1OC)C1COc2cccc(OC)c2C1 (stereo not given) |  | 9.00 | 6.00 | 5.52 | 7.00 | 5.40 | 8.00
18 | CCCN(CCCCN1CCOCC1)C1COc2cccc(OC)c2C1 (stereo not given) | 4.00 | 8.10 | < 3.00 | 5.00 | 5.40 | 5.00 | 7.52
19 | CCCN(CCCN1C(=O)c2ccccc2C1=O)C1COc2cccc(OC)c2C1 (stereo not given) | 4.40 | 7.00 | 5.52 | 5.40 | 6.00 | 5.10 | 7.10
20 | CCCN(CCC)C1COc2cccc(OC)c2C1 (stereo in doubt; (-)-4) | < 3.00 | 9.00 | 6.00 | 5.46 | 6.11 | 5.40 | 6.68
21 | CCCN(CCCCN1C(=O)c2ccccc2S1(=O)=O)C1COc2cccc(OC)c2C1 (stereo not given) | 4.30 | 9.00 | 6.00 | 6.00 | 4.40 | 5.00 | 7.05
22 | CCCN(CCCCNC(=O)c1ccc(F)cc1)C1COc2cccc(OC)c2C1 (stereo not given) | 4.70 | 9.40 | 5.52 | 5.70 | 5.40 | 5.52 | 8.15
23 | CCCN(CCCCN1C(=O)CC2(CCCC2)CC1=O)C1COc2ccccc2C1 (stereo not given) | 4.40 | 8.70 | 4.52 | 5.15 | 5.00 | 5.70 | 8.40
24 | CCCN(CCC)C1COc2ccc3ccccc3c2C1 (stereo not given) | 4.40 | 4.70 | 4.52 | 5.70 | 5.00 | 5.00 | 7.00
25 | CCC[N+](C)(CCCCN1C(=O)CC2(CCCC2)CC1=O)C1COc2cccc(OC)c2C1 (stereo not given) | 4.00 | 6.52 | < 3.00 | 4.15 | 3.00 | < 3.00 | 6.00
26 | CCCN(CCCCN1C(=O)C2CCCC2C1=O)C1COc2cccc(OC)c2C1 (single isomer, unassigned; (-)) | 4.52 | 9.00 | 4.52 | 5.10 | 5.30 | 5.52 | 8.00
27 | CCCN(CCCCn1c(=O)oc2cccnc21)C1COc2cccc(OC)c2C1 (stereo not given) | 4.52 | 8.30 | 6.00 | 5.52 | 5.30 | 5.22 | 7.00
28 | COc1cccc2c1CC(NCCCCN1C(=O)CC3(CCCC3)CC1=O)CO2 (stereo not given) | 4.70 | 7.70 | 4.70 | 5.00 | 4.70 | 6.00 | 6.05
29 | CCCN(CCN1C(=O)c2ccccc2C1=O)C1COc2cccc(OC)c2C1 (stereo not given) | < 3.00 | 6.10 | < 3.00 | < 3.00 | < 3.00 | < 4.00 | 5.00
